From patent US20260144259A1, “CRYSTAL OF 2-(5-CYCLOPROPYL-3-(ETHYLSULFONYL)PYRIDIN-2-YL)-5-((TRIFLUOROMETHYL)SULFINYL)BENZO[D]OXAZOLE” (SUMITOMO CHEMICAL COMPANY, LIMITED, priority 2022, published 2026) come the findings set out here.

Holding throughout (assay type): in vivo
For assay [1], the system named is cotton aphids (Aphis gossypii). As to the kind of experiment: Test method 1: spray on cucumber seedling infested with cotton aphids. The conditions noted are these: 500 ppm; sprayed 10 mL/seedling on cucumber one day after release of about 30 aphids (all stages); after 5 days; 25° C. The procedure: Next, an efficacy of the Type 1 crystal of Compound (1) on controlling harmful arthropods is shown by Test examples. The following tests were conducted at 25° C. Test compound is made to a formulation according to a similar method to that described in the Formulation example 1, and thereto is added water containing 0.03 v/v % of Shindain (registered trademark) to prepare a dilution containing a prescribed concentration of the test compound. Cucumber (Cucumis sativus) seedling (on the developmental stage of the second true leaf) is planted in a cup, and approximately 30 cotton aphids (Aphis gossypii) (all stages of life) are released onto the seedling. After one day, the dilutions are sprayed onto the seedling at a ratio of 10 mL/seedling. After 5 days, the number of the surviving insects is examined and the controlling value is calculated by the following equation. […]

Assay [2] relates to common cutworms (Spodoptera litura). As to the kind of experiment: Test method 2: sprayed cabbage leaves fed to common cutworms. The note with it: 120 h, cabbage sprayed 20 mL/seedling, second instar larvae, after 5 days, 25° C., read-out: mortality of insects. The method, then: (§1) Next, an efficacy of the Type 1 crystal of Compound (1) on controlling harmful arthropods is shown by Test examples. The following tests were conducted at 25° C.
(§2) Test compound is made to a formulation according to a similar method to that described in the Formulation example 1, and thereto is added water containing 0.03 v/v % of Shindain (registered trademark) to prepare a dilution containing a prescribed concentration of the test compound.
Cabbage (Brassicae oleracea) seedling (on the developmental stage of the second to third true leaf) is planted in a cup, and the dilutions are sprayed onto the seedling at a ratio of 20 mL/seedling. Thereafter, the stem and leaf thereof are cut out and then are placed into a cup that is lined with a filter paper. Five (5) common cutworms (Spodoptera litura) at the second instar larval stage are released into the cup. After 5 days, the number of the surviving insects is counted, and the mortality of insects is calculated by the following equation.

Assay [3] has as its system diamondback moths (Plutella xylostella). The experiment in a line: Test method 3: sprayed cabbage leaves fed to diamondback moths. The note with it: 120 h, cabbage sprayed 20 mL/seedling, second instar larvae, after 5 days, 25° C., read-out: mortality of insects. The procedure:
as §1, §2
Cabbage (Brassicae oleracea) seedling (on the developmental stage of the second to third true leaf) is planted in a cup, and the dilutions are sprayed onto the seedling at a ratio of 20 mL/seedling. Thereafter, the stem and leaf thereof are cut out and then are placed into a cup that is lined with a filter paper. Five (5) diamondback moths (Plutella xylostella) at the second instar larval stage are released into the cup. After 5 days, the number of the surviving insects is counted, and the mortality of insects is calculated by the following equation.

The subject of assay [4] is common house mosquitos (Culex pipiens pallens). The experiment in a line: Test method 4: common house mosquito larvae released into dilution. The conditions noted are these: 24 h, last instar larvae released into dilution, after 1 day, 25° C., read-out: mortality of insects. The method, then:
as §1
Test compound is made to a formulation according to a similar method to that described in the Formulation example 1, and thereto is added water to prepare a dilution containing a prescribed concentration of the test compound.
Into the dilution, 30 common house mosquitos (Culex pipiens pallens) at the last instar larval stage are released, and after 1 day, the state of the common house mosquito larvae is examined, and the mortality of insects is calculated by the following equation.

The subject of assay [5] is brown planthoppers (Nilaparvata lugens). The experiment in a line: Test method 5: sprayed rice seedling with brown planthoppers. The conditions noted are these: 144 h, rice sprayed 10 mL/seedling, third instar larvae, after 6 days, 25° C., read-out: mortality of insects. The method, then:
as §1, §2
Rice (Oryza sativa) seedling (on the developmental stage of the second leaf) is planted in a cup, and the dilutions are sprayed onto the seedling at a ratio of 10 mL/seedling. Thereafter, twenty (20) brown planthoppers (Nilaparvata lugens) at the third instar larval stage are released into the cup. After 6 days, the number of the surviving insects is counted, and the mortality of insects is calculated by the following equation.

Assay [6] concerns cotton aphids (Aphis gossypii). The experiment in a line: Test method 6: sprayed cucumber seedling, artificial rainfall, then cotton aphids released. The conditions noted are these: 0.5 ppm; cucumber sprayed 10 mL/seedling, dried, artificial rain 10 mm/hr for 1 hour; female adults released after one day; after 5 days; 25° C. The method, then: Next, an efficacy of the Type 1 crystal of Compound (1) on controlling harmful arthropods is shown by Test examples. The following tests were conducted at 25° C. Test compound is made to a formulation according to a similar method to that described in the Formulation example 1, and thereto is added water containing 0.02 v/v % of Shindain (registered trademark) to prepare a dilution containing a prescribed concentration of the test compound. Only the second true leaves of Cucumber (Cucumis sativus) seedling (on the developmental stage of the third true leaf) are retained, and the other leaves are cut off, and the dilutions are sprayed onto the seedling at a ratio of 10 mL/seedling. After the dilution, which is treated, is dried, rain is given to the cucumber seedling with an artificial rainfall device at 10 mm/hr for 1 hour. After one day, 10 cotton aphids (Aphis gossypii) female adults are released onto the seedling. After 5 days, the number of the surviving insects is examined and the controlling value is calculated by the following equation. […]

The test system of assay [7] is Argentine ant (Linepithema humile). The experiment in a line: Test method 7: sugar-water filter paper test on Argentine ant workers. The conditions noted are these: 0.2 ppm, 0.7 ml dilution in sugar water on filter paper, after 6 days, 25° C. The procedure:
as §1
(§3) Test compound is made to a formulation according to a similar method to that described in the Formulation example 1, and thereto is added 1.8 g of sucrose, followed by adding 3% sugar water to prepare a dilution containing a prescribed concentration of the test compound.
A filter paper having a diameter of 5.5 cm is spread on the bottom of the cup, and then 0.7 ml of the dilutions are added dropwise to the filter paper, and ten (10) Argentine ant (Linepithema humile) workers are released into the cup, and the cup is covered with the lid. After 6 days, the number of the dead and distressed individuals of Argentine ant workers are counted, and the ratio of distressed and dead insects (%) is calculated by the following equation.
(§4) Here the dead individual is one whose behavior has completely stopped, and a distressed individual is one that cannot stand up when placed on its back and also cannot walk.

Assay [8] concerns pharaoh ant (Monomorium pharaonis). The experiment in a line: Test method 8: sugar-water filter paper test on pharaoh ant workers. The conditions noted are these: 0.05 ppm, 0.7 ml dilution in sugar water on filter paper, after 2 days, 25° C. The procedure: as §1, §3
A filter paper having a diameter of 5.5 cm is spread on the bottom of the cup, and then 0.7 ml of the dilutions are added dropwise to the filter paper, and ten (10) pharaoh ant (Monomorium pharaonis) workers are released into the cup, and the cup is covered with the lid. After 2 days, the number of the dead and distressed individuals of pharaoh ant workers are counted, and the ratio of distressed and dead insects (%) is calculated by the following equation.
as §4

Assay [9] deals with German cockroach (Blattella germanica). As to the kind of experiment: Test method 9: sugar-water filter paper test on German cockroach male adults. The note with it: 0.2 ppm, 0.7 ml dilution in sugar water on filter paper, after 5 days, 25° C. The procedure:
as §1, §3
A filter paper having a diameter of 5.5 cm is spread on the bottom of the cup, and then 0.7 ml of the dilutions are added dropwise to the filter paper, five (5) German cockroach (Blattella germanica) male adults are released into the cup, and the cup is covered with the lid. After 5 days, the number of the dead and distressed individuals of German cockroach male adults are counted, and the ratio of distressed and dead insects (%) is calculated by the following equation.
as §4

Assay [10] has as its system common house mosquito (Culex pipiens pallens). As to the kind of experiment: Test method 10: sugar-water filter paper test on common house mosquito female adults. The conditions noted are these: 0.8 ppm, 0.7 ml dilution in sugar water on filter paper, after 2 days, 25° C. The method, then: as §1, §3
A filter paper having a diameter of 5.5 cm is spread on the bottom of the cup, and then 0.7 ml of the dilutions are added dropwise to the filter paper, five (5) common house mosquito (Culex pipiens pallens) female adults are released into the cup, and the cup is covered with the lid. After 2 days, the number of the dead and distressed individuals of […] female adults are counted, and the ratio of distressed and dead insects (%) is calculated by the following equation.
Here the dead individual is one whose behavior has completely stopped, and a distressed individual is one that cannot fly and also cannot walk.

As a reminder, the mortality is the percentage killed. As to `CCS(=O)(=O)c1cc(C2CC2)cnc1-c1nc2cc([S+]([O-])C(F)(F)F)ccc2o1` (stereo not drawn) [Type 1 crystal of Compound (1), 2-(5-cyclopropyl-3-(ethylsulfonyl)pyridin-2-yl)-5-((trifluoromethyl)sulfinyl)benzo[d]oxazole], the controlling value is on record as at least 90% in [1] and 55.7% in assay [6]. Also, the mortality at 500 ppm was at least 80% in assay [2], at least 80% in assay [3] and at least 90% in assay [5]. Moreover, in [4], the mortality at 3.5 ppm is at least 90%. The “ratio of distressed and dead insects” value in assay [7] is recorded as 95%; in [8], 100%; in assay [9], 100%; in [10], 100%.

For the compound `CCS(=O)(=O)c1cc(C2CC2)cnc1-c1nc2cc([S+]([O-])C(F)(F)F)ccc2o1` (stereo not drawn) [amorphous of Compound (1), 2-(5-cyclopropyl-3-(ethylsulfonyl)pyridin-2-yl)-5-((trifluoromethyl)sulfinyl)benzo[d]oxazole], the controlling value in assay [6] came out at 32.4%. The “ratio of distressed and dead insects” value amounted to 30% in assay [7], 15% in [8], 0% in assay [9] and 20% in [10].
